# How the values were obtained:
# [1] = tested on: FoxP3 and PD-L1 expression; assay: biological screening of FoxP3 and PD-L1 expression; format: cell-based; details: inhibition of FoxP3 and PD-L1 expression
# Procedure: Biological screening confirmed that USP22i-S02 inhibited the expression of FoxP3 and PD-L1 expression in a USP22-dependent manner. The IC50 is about 6-7 uM. […] In particular, modifications at the R position at A-Ring, or R1 and R2 at E-Ring are likely to improve its biological activity. Therefore, we used the SYBYL drug design software and generated a chemical library of 40400 derivatives (named as USP22-S02X) by modifying the A or/and E ring with 200 functional groups at the R or R1 or R2 or two of the three positions.
# naïve mice = assay: toxicity and Treg phenotype in naïve mice; format: in vivo
# Procedure: B, FOXP3 MFI in WT and 22KO of Treg cells after treatment with 20 μg/kg of Usp22i-S02 in vivo (n=3). C, Representative flow cytometry plot of FOXP3+CD25+MFI of CD4+ peripheral cells of mice treated with 20 μg/kg of Usp22i-S 02 relative to control (n=5). D, Graphical representation of Foxp3 MFI upon Usp22i-S02 administration (n=5). E, Tumor growth curve of LLC1 cells subcutaneously injected in the flank of WT mice with or without the addition of 20 mg/kg/time of the Usp22 inhibitor starting at day 15, in 100 μL of oil (n=4). F-G, Representative flow cytometry plot and graphical representation of % infiltration of CD4+ and CD8+ T cells within the tumor (n=4). H, Representative histogram plot and graphical representation of intratumoral Treg (itTreg) Foxp3 MFI (n=4). I, MFI of itTreg suppressive markers (n=3-4). J, Percent Foxp3+IFNg+itTreg cells in control and Usp22-S02 treated mice (n=3-4). B, D-E, G, H-I Two-way ANOVA with multiple comparisons between rows was performed to determine statistical significance. J, Unpaired two tailed T test was performed to determine significance. All data are presented as mean±stdev. NS, not significant. *P<0.05, **P<0.01, ***P<0.001, ****P<0.0001.
# A, Body weight of Usp22i-S02 treated mice verses DMSO treated controls over the course of treatment (n=4). A-F. Injections were twice a day for 3 consecutive days at 10 μg/kg (n=4). B, Percent of cell populations in naïve mice treated with Usp22i-S02 relative to DMSO control (n=3-4). […] D, Percent CD44^hiCD62L^lo in T cell populations gated on CD45+ cells in naïve mice treated with Usp22i-S02 relative to DMSO control (n=3). E, Percent Annexin+PI+ T cells gates on CD45+ cells in naïve mice treated with Usp22i-S02 relative to DMSO control (n=4). F-H, Organ toxicity panel (VetScan VS2 Comprehensive Diagnostic Rotor lot 1061AA2) of naïve mice treated with Usp22i-S02 relative to DMSO control (n=2-3). I, Growth curve of subcutaneously injected LLC1 in WT mice treated with Usp22i-S02 at 10 μg/kg (n=5-10). I-Q, Injections were twice a day for 5 consecutive days at 10 μg/kg. J, Weights of resected tumors at day 16 from I (n=10). K-L, Representative flow plot and graphical representation of infiltrating T cells gated on CD45+ cells (n=5). M-P, Characterization of intratumoral CD8+ T cells frome mice treated with Usp22i-S02 (n=3-5). Q, Percent of intratumoral Treg cells from mice treated with Usp22i-S02 verses DMSO control, gated on CD4+Foxp3+ from mice (n=5). A-E, I and L, Two-way ANOVA with Sidaks's multiple comparisons between rows relative to control was performed to determine statistical significance. F-H, J, and M-Q, Two-tailed unpaired t-test was performed to determine statistical significance. All data are presented as mean±stdev. NS, not significant. *P<0.05, **P<0.01, ***P<0.001, ****P<0.0001.
# An important aspect of a potential immunotherapeutic is its antitumor functionality paired with low immune toxicity. To determine the toxicity of Usp22i-S02 in vivo, we first determined its effects in naïve mice.
# [2] = tested on: LLC1 tumors in RAG−/− mice; assay: LLC1 tumor growth in RAG−/− mice; format: in vivo; details: treated for 3 days at day 15 of tumor growth
# Procedure: FIG. 8: Usp22i-S02 inhibits tumor growth in vitro and in vivo. A, In vitro counts of LLC1 after treatment with Usp22i-S02 under various concentrations for 24 hours (n=2). B, In vitro viability of LLC1 after treatment with Usp22i-S02 under various concentrations for 24 hours (n=2). C, In vitro relative growth of LLC1 cells treated with 10 ug/ml of Usp22i-S02 relative to DMSO treated control for 7 days via OD600 (n=4). D, Growth curve of 1 million subcutaneously injected LLC1 cells into RAG−/− mice treated for 3 days Usp22i-S02 relative to DMSO control injections at day 15 of tumor growth (n=4). C-D, Two-way ANOVA with Sidaks's multiple comparisons between rows relative to control was performed to determine statistical significance. All data are presented as mean±stdev. NS, not significant. *P<0.05, **P<0.01, ***P<0.001, ****P<0.0001.
# As Usp22 is also an important oncogene, we were interested in the potential dual-therapeutic function of Usp22i-S02.
smiles,measurement,setting,value
"N#Cc1c2c(c(Nc3ccccc3)n3c1nc1ccccc13)CCCC2 [USP22i-S02, 11-anilino-7,8,9,10-tetrahydrobenzimidazo[1,2-b]isoquinoline-6-carbonitrile]",IC50,[1],6 to 7 µM
same,FOXP3 MFI in Usp22-KO mice,"naïve mice; Usp22-KO mice, 20 μg/kg",no additional decrease to FOXP3 MFI
same,FOXP3 MFI in Treg cells from spleen and lymph nodes,"naïve mice; WT mice, 20 μg/kg",significant drop in FOXP3 MFI
same,Treg cell death,naïve mice; naïve mice,significantly increased
same,Treg percentage,naïve mice; naïve mice,decrease in Treg percentage
same,Treg proliferation,naïve mice; naïve mice,also increased
same,organ toxicity (comprehensive tissue panel),naïve mice; naïve mice versus DMSO control,no organ toxicity differences
same,"weights, B cell and Teff cell percentages and proliferation, Teff cell activation","naïve mice; naïve mice versus DMSO-treated control, twice a day for 3 days at 10 μg/kg",little alteration
same,tumor growth in Rag−/− mice with established tumors,[2],small but statistically significant decrease in tumor growth

# — patent US12624031B2, “Inhibitors of ubiquitin specific peptidase 22 (USP22) and uses thereof for treating diseases and disorders” (Northwestern University, priority 2022, dated 2026)
